# Patent publication US20060079680A1, “Pyrazoloazepine compounds as pharmaceutical agents” (Eli Lilly and Company Patent Division, priority 2002, published 2006)
smiles,measurement,value
"c1ccc(-c2nn3c(c2-c2ccnc4cc(OCCN5CCOCC5)ccc24)CCCCC3)nc1 [Example 4, 3-[7-(2-Morpholin-4-yl-ethoxy)-quinolin-4-yl]-2-pyridin-2-yl-5,6,7,8-tetrahydro-4H-pyrazolo[1,5-a]azepine]",melting point,157 to 159 °C
